This is an account of results in US20120083464A1, “NEUROPROTECTIVE PROPERTIES OF 5'-METHYLTHIOADENOSINE” (priority 2009, published 2012).

In series [1] the test system is mixed cultures of neurons and astrocytes obtained from the cerebral cortex. Briefly: Oxygen-glucose deprivation (simulated ischemia) in neuron-astrocyte co-cultures. Format: cell-based, Sprague-Dawley rat. An excerpt: Primary neuron cultures were obtained from the cortical lobes of E18 Sprague-Dawley rat embryos according to previously described procedures (Cheung et al., 1998, Neuropharmacology 37:1419-1429). The cells were resuspended in B27 Neurobasal medium plus 10% FBS and then seeded in 24-well plates at 1-2×10^5 cells per well onto a monolayer of astrocytes which were previously prepared as described earlier (Vallejo-Illarramendi et al., 2005, Glia 50:276-279). One day later, the medium was replaced by B27-supplemented Neurobasal medium and 10% fetal bovine serum, and maintained at 37° C. and 5% CO2. Cultures were used 8-9 days after plating. Cultured neurons and astrocytes were identified using antibodies to microtubule associated protein-2 and glial fibrillary acidic protein, respectively.
Ischemic damage was induced by incubating cell cultures in a hyperbaric chamber for 1 hour in nitrogen-saturated buffer containing NaCl 130 mM, KCl 5.4 mM, CaCl2 0.1323 mM, […], MgCl2 0.8 mM, NaH2PO4 1.18 mM, 10 mM sucrose as a substitute of glucose, and the glyocolytic blocker iodoacetate (20 or 50 μM). After the insult, cells were incubated in normoxia, glucose added and iodoacetate removed for an additional period of 24 hours. […] The results are expressed as the mean±SEM of at least four independent experiments performed in triplicate.

The subject of series [2] is oligodendrocytes derived from the optic nerve. The series can be described thus: MTA toxicity profile in cultured oligodendrocytes (calcein-AM). Format: cell-based. Conditions: MTA 1 μM-3 mM for 24 hours. On the procedure: Primary cultures of oligodendrocytes derived from optic nerves of 12-d-old Sprague Dawley rats were obtained as described previously (Barres et al., 1992). Cells were seeded into 24-well plates bearing 12-mm-diameter coverslips coated with poly-D-lysine (10 μg/ml) at a density of 5×10^3 cells per well. Cells were maintained at 37° C. and 5% CO2 in a chemically defined medium (Barres et al., 1992, Cell 70:31-46). After 2-4 d in vitro, cultures were composed of at least 98% O4/galactocerebroside-positive (O4/Ga1C_) cells; the majority of the remaining cells were stained with antibodies to glial fibrillary acidic protein (GFAP). No A2B5+ or microglial cells were detected in these cultures (Alberdi et al., 2002, Neurobiol Dis 9:234-243).
Cell toxicity and viability assays were performed as described previously (Sánchez-Gómez and Matute, 1999, Neurobiol Dis 6:475-485). For evaluating the MTA toxicity, cells at 2-4 d in culture were exposed for 24 hours to that drug and cell viability assessed using calcein-AM (Invitrogen). […] Twenty-four hours after drug application, cell viability was assessed using calcein-AM (Invitrogen). The total number of surviving cells on each coverslip emitting calcein fluorescence was counted, and results were expressed as percentage of cell death versus control. Results were expressed as the mean±SEM of at least three independent experiments performed in duplicate. […]

Series [3] concerns caspase 3 activity. The series can be described thus: NMDA-mediated increase in caspase 3 activity in mixed neuronal-glial culture. In kind it is cell-based, Sprague-Dawley rat. Conditions: NMDA 300 μM, MTA 250 μM or MK-801 10 μM. On the procedure: Primary cultures of brain cortical neurons and glia were essentially prepared as described previously (Bruno et al., 2001, Eur. J. Neurosci., 13:1469-1478). The fronto-lateral cortical lobes were dissected out of Sprague-Dawley embryonic day 17 foetuses and were mechanically dissociated in Hanks' balanced solution. The cortical lobes were triturated by aspirating 7-10 times using a Pasteur pipette with a flame-narrowed tip. […]
Cortical neurons or mixed cortical neurons and glia were plated on poly-L-lysine-coated 6-well culture plates and after 7 DIV, cells were treated with vehicle or NMDA (300 μM) for different periods of time. […] Extracts were then centrifuged at 5,000×g for 10 min at 4° C., and protein content was determined by using the BCA protein assay according to the manufacturer instructions. Cell extracts (40 μg of protein) were incubated in reaction buffer (25 mM Hepes, 10% sucrose, 0.1% CHAPS, 10 mM DTT) containing 50 μM fluorescence substrate Z-DEVD-AFC at 37° C. for 1 h. Cleavage of the AFC fluorophore was determined in a spectrofluorometer at excitation wavelength of 400 nm and fluorescence was detected at an emission wavelength of 505 nm. Caspase 3 activity was expressed as units of fluorescence/mg of protein/h (Posadas et al., 2009, Pharm. Res., In press).

Series [4] deals with RN22 cells. Briefly: Copper sulphate stress in RN22 cells, MTT cell viability. In kind it is cell-based, rat. As for the experimental part:
RN22 cells were maintained at 37° C. in DMEM medium supplemented with 10% of fetal bovine serum and penicillin/streptomycine. The assays against stress with copper sulphate were conducted using 24-well plates in DMEM medium without serum. After allowing cell adherence for three days, NGF (100 ng/ml) or MTA was added to different concentrations half an hour before the copper sulphate (150 μM). After twenty-four hours, cell viability was quantified by MTT assay and ROS production was quantified by fluorescence. Assays against stress with hydrogen peroxide were conducted in the same way as the foregoing, using 100 μM hydrogen peroxide as a stress-producing agent.
We determined the quantity of MTT (Sigma) that is reduced to insoluble formazan. After separating the medium, the water-insoluble formazan is solubilised in DMSO and the dissolved material is measured in a spectrophotometer at 570 nm.

Entries after “also recorded” stand apart in the source; their conditions may differ.

Take `CSC[C@H]1O[C@@H](n2cnc3c(N)ncnc32)[C@H](O)[C@@H]1O` [MTA, 5′-methylthioadenosine]: the “protection from OGD-induced damage compared with APV (50 μM)” value in series [1] (MTA at 10 μM) was “even more protective than APV”. The “protection from OGD (ischemia)-induced damage” value in series [1] (OGD 1 hour with IAA at 20 or 50 μM, both conditions, assayed 24 hours later) was “highly protective”. The “MTA concentrations at which significant toxicity was observed (calcein-AM)” value in series [2] is on record as “above 300 μM”. Moreover, the “protection against NMDA-induced caspase 3 activity” value in series [3] is recorded as “blockade of caspase 3 activation; also recorded: protection”. Besides, in series [4] (MTA in mM range), the “cell viability response (MTT) under copper sulphate stress at high MTA concentrations” value is “lowest response”. Also, in series [4] (copper sulphate 150 μM, twenty-four hours, reaches NGF control levels at most MTA concentrations), the “cell viability (MTT) under copper sulphate stress” value was “significant neuroprotective effect”.
